In the supplement of paper PMC10307832:

How the values were obtained:
Assay in all cases: relative viability (nuclei count vs DMSO), 5 days (fraction); higher = more cells survive
[1] = compound: CCn1c(-c2nonc2N)nc2cnc(Oc3cccc(NC(=O)c4ccc(OCCN5CCOCC5)cc4)c3)cc21 + Cc1nc(NC(=O)N2CCC[C@H]2C(N)=O)sc1-c1ccnc(C(C)(C)C(F)(F)F)c1 [Alpelisib] (partner 2 µM)
Outline: (§1)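 Lung cancer cell lines were seeded in 1536-well plates and dosed by pin tool the next day, with either a single drug or a fixed anchor-drug dose combined with five library-drug doses (not always all listed) spaced in √10 steps. Five days later, one step fixed the cells and stained their nuclei (final 0.05% Triton X-100, 1% formaldehyde, 1 ug/ml Hoechst), and nuclei were counted on 4× images. Relative viability is the nuclei count in treated wells divided by the count in vehicle wells, and each value is the median of duplicate plates.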

[2] = compound: CCC1=CN=CN=C1N2CCN(CC2)CC3=NC4=C(N3)C=C(C=C4)C(F)(F)F + C[C@]1(O)C[C@@H](c2nc(-c3ccc4ccc(-c5ccccc5)nc4c3)c3c(N)nccn32)C1 [Linsitinib] (partner 1 µM)
Outline: as §1

[3] = compound: CCC1=CN=CN=C1N2CCN(CC2)CC3=NC4=C(N3)C=C(C=C4)C(F)(F)F + O=C(c1cc(Cc2n[nH]c(=O)c3ccccc23)ccc1F)N1CCN(C(=O)C2CC2)CC1 [Olaparib] (partner 8 µM)
Outline: as §1

[4] = compound: CCn1c(-c2nonc2N)nc2cnc(Oc3cccc(NC(=O)c4ccc(OCCN5CCOCC5)cc4)c3)cc21 + Cc1nc(Nc2ncc(C(=O)Nc3c(C)cccc3Cl)s2)cc(N2CCN(CCO)CC2)n1 [Dasatinib] (partner 0.075 µM)
Outline: as §1

Row | Cell Line | relative viability ([1]; first compound 0.04 µM) | relative viability ([1]; first compound 0.1265 µM) | relative viability ([1]; first compound 1.265 µM) | relative viability ([1]; first compound 4 µM) | relative viability ([2]; first compound 0.04 µM) | relative viability ([2]; first compound 0.1265 µM) | relative viability ([2]; first compound 0.4 µM) | relative viability ([2]; first compound 1.265 µM) | relative viability ([2]; first compound 4 µM) | relative viability ([3]; first compound 0.04 µM) | relative viability ([3]; first compound 0.1265 µM) | relative viability ([3]; first compound 0.4 µM) | relative viability ([3]; first compound 1.265 µM) | relative viability ([3]; first compound 4 µM) | relative viability ([4]; first compound 0.04 µM) | relative viability ([4]; first compound 0.1265 µM) | relative viability ([4]; first compound 0.4 µM) | relative viability ([4]; first compound 1.265 µM) | relative viability ([4]; first compound 4 µM) | relative viability ([1]; first compound 0.4 µM)
1 | NCI-H1993 | 0.758 | 0.77 | 0.719 | 0.668 | 0.81 | 0.799 | 0.753 | 0.72 | 0.838 | 0.95 | 1.03 | 1.09 | 0.895 | 0.974 | 0.596 | 0.572 | 0.5 | 0.552 | 0.569 | –
2 | NCI-H2347 | 1.12 | 1.06 | 0.511 | 0.588 | 0.961 | 0.926 | 0.944 | 0.942 | 1.09 | 0.6 | 0.654 | 0.603 | 0.59 | 0.575 | 0.402 | 0.436 | 0.286 | 0.374 | 0.349 | 0.906
3 | NCI-H1437 | 1.06 | 0.888 | 0.809 | 0.753 | 1.03 | 0.967 | 0.896 | 0.836 | 0.634 | 0.597 | 0.595 | 0.575 | 0.544 | 0.505 | 0.629 | 0.373 | 0.148 | 0.363 | 0.35 | 0.833
4 | SK-MES-1 | 0.924 | 0.735 | – | 0.684 | 1.02 | 1.06 | 1.16 | 1.1 | 0.95 | 0.657 | 0.643 | 0.684 | 0.592 | 0.673 | 0.429 | 0.256 | 0.224 | 0.244 | 0.172 | 0.656
5 | NCI-H3122 | 0.831 | 0.885 | 0.729 | 0.82 | 1.11 | 1.11 | 1.01 | 1.08 | 0.93 | 0.663 | 0.55 | 0.551 | 0.54 | 0.56 | 0.955 | 0.82 | 0.651 | 0.554 | 0.525 | 0.782
6 | NCI-H2023 | 0.715 | 0.666 | 0.549 | 0.425 | 0.714 | 0.658 | 0.664 | 0.757 | 0.746 | 0.53 | 0.48 | 0.493 | 0.418 | 0.46 | 0.519 | 0.424 | 0.257 | 0.294 | 0.232 | 0.66
7 | PC-14 | 1.06 | 0.935 | 0.77 | 0.805 | 0.918 | 0.896 | 0.965 | 0.931 | 0.982 | 0.231 | 0.275 | 0.29 | 0.25 | 0.261 | 0.221 | 0.173 | 0.174 | 0.158 | 0.115 | 0.871
8 | NCI-H727 | 0.745 | 0.833 | 0.84 | 0.713 | 0.246 | 0.183 | 0.495 | – | 0.299 | 0.73 | 0.593 | 0.719 | 0.61 | 0.641 | 0.507 | 0.621 | 0.405 | 0.467 | 0.521 | 0.751
9 | NCI-H1734 | 0.802 | 0.708 | 0.571 | 0.402 | 0.971 | 0.836 | 0.946 | – | 0.877 | 0.63 | 0.609 | 0.587 | 0.584 | 0.557 | 0.416 | 0.39 | 0.232 | 0.229 | 0.198 | 0.513
10 | NCI-H647 | 1.04 | 0.746 | 0.657 | 0.577 | 1.33 | 1.18 | – | 1.24 | 1.31 | 0.458 | 0.528 | 0.452 | 0.519 | 0.408 | 0.145 | 0.0946 | 0.0784 | 0.122 | 0.0956 | 0.795
11 | NCI-H1944 | 0.934 | 0.809 | 0.781 | 0.789 | 1.36 | 1.21 | 1.08 | – | 0.99 | 0.622 | 0.395 | 0.378 | 0.344 | 0.361 | 0.192 | 0.154 | 0.138 | 0.157 | 0.139 | –
12 | LK-2 | 1.39 | 1.2 | 0.282 | 0.512 | 0.739 | 0.515 | 0.588 | 0.319 | 0.598 | 0.817 | 0.675 | 0.603 | 0.517 | 0.712 | 0.39 | 0.493 | 0.208 | 0.178 | 0.252 | 1.1
13 | HCC-15 | 1.03 | 0.831 | 0.867 | 0.845 | 0.945 | 0.801 | 0.815 | 0.812 | 0.846 | 0.688 | 0.727 | 0.685 | 0.762 | 0.668 | 0.618 | 0.464 | 0.349 | – | 0.395 | 0.953
14 | NCI-H838 | 0.654 | 0.467 | 0.406 | 0.332 | 0.991 | 0.912 | 0.941 | 0.916 | 1.05 | 0.816 | 0.752 | 0.737 | 0.712 | 0.74 | 0.314 | 0.192 | 0.199 | 0.208 | 0.183 | 0.484
15 | HOP-62 | 1.11 | 1.01 | 0.824 | 1.01 | 1.27 | 1.02 | 0.983 | 0.87 | 0.77 | 0.377 | 0.293 | 0.269 | 0.458 | 0.363 | 0.511 | 0.344 | 0.179 | 0.172 | 0.17 | 0.925
16 | NCI-H322M | 0.895 | 0.816 | 0.939 | 0.909 | 0.979 | 0.801 | 0.911 | 0.909 | 1.02 | 0.792 | 0.811 | 0.725 | 0.672 | 0.85 | 0.255 | 0.216 | 0.231 | 0.274 | 0.259 | 0.759
17 | NCI-H1395 | 1.26 | 0.877 | 0.493 | 0.634 | 1.12 | 1.01 | 1.24 | 0.855 | 1.09 | 0.459 | 0.482 | 0.461 | – | 0.469 | 0.398 | 0.37 | 0.342 | 0.317 | 0.345 | 0.948
18 | NCI-H650 | 1.31 | 0.893 | 0.434 | 0.492 | 0.7 | 1.03 | 1.01 | 0.864 | 0.804 | 0.386 | 0.373 | 0.393 | 0.331 | 0.347 | 0.4 | 0.317 | 0.216 | 0.248 | 0.276 | 0.745
19 | NCI-H661 | 0.823 | 0.724 | 0.287 | 0.451 | 0.711 | 0.629 | 0.622 | – | 0.483 | 0.802 | 0.719 | 0.767 | 0.661 | 0.738 | 0.672 | 0.519 | 0.593 | 0.422 | 0.426 | 0.435
20 | EKVX | 1.16 | 0.83 | 0.764 | 0.837 | 1.01 | 0.897 | 0.954 | 0.769 | 0.905 | 0.877 | 0.734 | 0.89 | 0.684 | 0.862 | 0.565 | 0.277 | 0.434 | 0.457 | 0.427 | 0.883
21 | NCI-H520 | 1.18 | 0.982 | 0.788 | 0.522 | 0.908 | 0.93 | 0.886 | 0.773 | 0.861 | 0.291 | 0.415 | 0.349 | 0.333 | 0.298 | 0.166 | 0.174 | 0.166 | 0.163 | 0.139 | 0.897
22 | LCLC-97TM1 | 0.276 | 0.236 | 0.3 | 0.305 | 0.23 | 0.185 | 0.158 | 0.166 | 0.202 | 0.425 | 0.418 | 0.335 | 0.329 | 0.278 | 0.969 | 0.929 | 0.673 | 0.99 | 0.811 | –
23 | COR-L23 | 0.681 | 0.647 | 0.154 | 0.159 | 0.864 | 0.94 | 0.815 | 0.874 | 0.914 | 0.351 | 0.316 | 0.332 | 0.344 | 0.356 | 0.47 | 0.336 | 0.173 | 0.164 | 0.121 | 0.446
24 | NCI-H1355 | 0.863 | 0.951 | 0.814 | 0.863 | 0.852 | 0.745 | 0.806 | 0.732 | 0.913 | 0.775 | 0.654 | 0.732 | 0.667 | 0.643 | 0.755 | 0.712 | 0.235 | 0.312 | 0.275 | 0.818
25 | NCI-H1666 | 1.45 | 1.21 | 0.606 | 0.513 | 0.726 | 0.832 | 0.845 | 0.913 | 0.821 | 0.743 | 0.729 | 0.772 | 0.727 | 0.71 | 0.788 | 0.617 | 0.442 | 0.28 | 0.278 | 1.06
26 | EPLC-272H | 1.11 | 0.963 | 0.933 | 0.973 | 1.07 | 0.96 | 1 | 1.43 | 1.33 | 0.687 | 0.693 | 0.835 | 0.617 | 0.695 | 0.513 | 0.326 | 0.159 | 0.263 | 0.227 | 0.892
27 | NCI-H1651 | 1.09 | 1.06 | 0.964 | 0.653 | 0.96 | 1.09 | 0.934 | 0.938 | 0.944 | 0.206 | 0.179 | 0.175 | 0.19 | 0.17 | 0.499 | 0.369 | 0.229 | 0.247 | 0.267 | 0.883
